Experimental data published in US9695155B2, “Herbicidal substituted pyrimidinyloxy benzene compounds” (E. I. DU PONT DE NEMOURS AND COMPANY, priority 2013, dated 2017).

Experiments:
pigweed [1] = experiment: Test A preemergence; type: in vivo, Amaranthus retroflexus; conditions: for Plant response rating, Pigweed: 125 g ai/ha, 0 to 100 scale where 0 is no effect and 100 is complete control; for Pigweed plant response rating: 500 g ai/ha, 0 to 100 scale, 0 no effect, 100 complete control, approx. 10 days
Procedure, shortened: (§1)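 Visual injury scored 0–100 (100 = complete control) against untreated controls about 10 days after treatment in a greenhouse. Test chemicals, formulated with surfactant in non-phytotoxic solvent, were sprayed on soil preemergence or on 2-10 cm, one- to two-leaf plants postemergence.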

pigweed [2] = experiment: Test A postemergence; type: in vivo, Amaranthus retroflexus; conditions: 0 to 100 scale where 0 is no effect and 100 is complete control
Procedure, shortened: as §1

wheat = experiment: Test A postemergence; type: in vivo, Triticum aestivum; conditions: 0 to 100 scale where 0 is no effect and 100 is complete control
Procedure, shortened: as §1

sedge, umbrella = experiment: Test B flooded paddy test; type: in vivo, Cyperus difformis; conditions: Flood, 250 g ai/ha; 0 to 100 scale where 0 is no effect and 100 is complete control
Procedure, shortened: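 Plants at 2-leaf stage; pots flooded to 3 cm above soil and compound applied directly into paddy water, depth held throughout. After 13 to 15 days in greenhouse, visual rating versus controls on 0 (no effect) to 100 (complete control) scale.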

Italian ryegrass = experiment: Test C preemergence; type: in vivo, Lolium multiflorum; conditions: for Ryegrass, Italian plant response rating: preemergence; for Plant response rating, Ryegrass, Italian: Preemergence, 31 g ai/ha, scale 0 to 100, 0 no effect, 100 complete control
Procedure, shortened: (§2)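 Seeds were sown in loam–sand blend and sprayed preemergence, while plants at 1- to 4-leaf stage (2–18 cm) in peat-based medium received postemergence sprays; test chemicals were formulated in a non-phytotoxic solvent with surfactant. After 13–15 days in a greenhouse, injury was rated visually against controls, 0 (no effect) to 100 (complete control).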

galium = experiment: Test C preemergence; type: in vivo, Galium aparine; conditions: for Galium plant response rating: preemergence; for Plant response rating, Galium: Preemergence, 31 g ai/ha, scale 0 to 100, 0 no effect, 100 complete control
Procedure, shortened: as §2

large (Lg) crabgrass = experiment: Test C postemergence; type: in vivo, Digitaria sanguinalis; conditions: for Crabgrass, Large plant response rating: 16 g ai/ha, visual rating; for Crabgrass, Large plant response rating / Plant response rating (0 to 100), Crabgrass, Large: postemergence; for Crabgrass, Large plant response rating / Plant response rating, Crabgrass, Large: scale 0 to 100 (0 no effect, 100 complete control); for Plant response rating (0 to 100), Crabgrass, Large: 125 g ai/ha; for Plant response rating, Crabgrass, Large: Postemergence
Procedure, shortened: as §2

giant foxtail = experiment: Test C postemergence; type: in vivo, Setaria faberii; conditions: for Foxtail, Giant plant response rating: 16 g ai/ha, visual rating; for Foxtail, Giant plant response rating / Plant response rating (0 to 100), Foxtail, Giant: postemergence; for Foxtail, Giant plant response rating / Plant response rating, Foxtail, Giant: scale 0 to 100 (0 no effect, 100 complete control); for Plant response rating (0 to 100), Foxtail, Giant: 125 g ai/ha; for Plant response rating, Foxtail, Giant: Postemergence
Procedure, shortened: as §2

johnsongrass = experiment: Test C postemergence; type: in vivo, Sorghum halepense; conditions: for Johnsongrass plant response rating: 16 g ai/ha, visual rating; for Johnsongrass plant response rating / Plant response rating (0 to 100), Johnsongrass: postemergence; for Johnsongrass plant response rating / Plant response rating, Johnsongrass: scale 0 to 100 (0 no effect, 100 complete control); for Plant response rating (0 to 100), Johnsongrass: 125 g ai/ha; for Plant response rating, Johnsongrass: Postemergence
Procedure, shortened: as §2

yellow nutsedge = experiment: Test C postemergence; type: in vivo, Cyperus esculentus; conditions: for Plant response rating (0 to 100), Nutsedge, Yellow: 125 g ai/ha, postemergence; for Plant response rating, Nutsedge, Yellow: Postemergence, scale 0 to 100 (0 no effect, 100 complete control)
Procedure, shortened: as §2

soybean = experiment: Test C postemergence; type: in vivo, Glycine max; conditions: for Plant response rating (0 to 100), Soybean: 125 g ai/ha, postemergence; for Plant response rating, Soybean: Postemergence, scale 0 to 100 (0 no effect, 100 complete control)
Procedure, shortened: as §2

oilseed rape = experiment: Test C postemergence; type: in vivo, Brassica napus; conditions: for Plant response rating (0 to 100), Oilseed Rape: 125 g ai/ha, postemergence; for Plant response rating, Oilseed Rape: Postemergence, scale 0 to 100 (0 no effect, 100 complete control)
Procedure, shortened: as §2

velvetleaf = experiment: Test C postemergence; type: in vivo, Abutilon theophrasti; conditions: for Plant response rating (0 to 100), Velvetleaf: 125 g ai/ha, postemergence; for Plant response rating, Velvetleaf: Postemergence, scale 0 to 100 (0 no effect, 100 complete control)
Procedure, shortened: as §2

[3] = 16 g ai/ha, scale 0 to 100 (0 no effect, 100 complete control)
[4] = 62 g ai/ha, scale 0 (no effect) to 100 (complete control)
[5] = 125 g ai/ha, scale 0 (no effect) to 100 (complete control)

SMILES | Plant response rating, Pigweed (pigweed [1]) | Pigweed plant response rating (pigweed [1]) | Plant response rating, Pigweed (pigweed [2]; 125 g ai/ha) | Plant response rating, Pigweed (pigweed [2]; 500 g ai/ha) | Plant response rating, Wheat (wheat; 125 g ai/ha) | Plant response rating, Wheat (wheat; 500 g ai/ha) | Plant response rating, Sedge, Umbrella (sedge, umbrella) | Ryegrass, Italian plant response rating (Italian ryegrass; [3]) | Ryegrass, Italian plant response rating (Italian ryegrass; [4]) | Ryegrass, Italian plant response rating (Italian ryegrass; [5]) | Plant response rating, Ryegrass, Italian (Italian ryegrass) | Galium plant response rating (galium; [3]) | Galium plant response rating (galium; [4]) | Galium plant response rating (galium; [5]) | Plant response rating, Galium (galium) | Crabgrass, Large plant response rating (large (Lg) crabgrass; 13 to 15 days) | Plant response rating (0 to 100), Crabgrass, Large (large (Lg) crabgrass) | Plant response rating, Crabgrass, Large (large (Lg) crabgrass; 31 g ai/ha, 13 to 15 days) | Plant response rating, Crabgrass, Large (large (Lg) crabgrass; 62 g ai/ha) | Foxtail, Giant plant response rating (giant foxtail; 13 to 15 days) | further results
FCc1cccc(Oc2ncc(Cl)cn2)c1-n1cc(Br)cn1 [Compound 83] | 100 | 100 | 100 | 100 | 0 | 60 | 45 | 0 | 30 | 50 | 0 | 0 | 85 | 100 | 0 | 5 | 10 | 5 | 10 | 35 | Plant response rating (0 to 100), Foxtail, Giant (giant foxtail): 40; Plant response rating, Foxtail, Giant (giant foxtail; 31 g ai/ha, 13 to 15 days): 35; Plant response rating, Foxtail, Giant (giant foxtail; 62 g ai/ha): 10; Johnsongrass plant response rating (johnsongrass; 13 to 15 days): 0; Plant response rating (0 to 100), Johnsongrass (johnsongrass): 10; Plant response rating, Johnsongrass (johnsongrass; 31 g ai/ha, 13 to 15 days): 0; Plant response rating, Johnsongrass (johnsongrass; 62 g ai/ha): 10; Plant response rating (0 to 100), Nutsedge, Yellow (yellow nutsedge): 5; Plant response rating, Nutsedge, Yellow (yellow nutsedge; 31 g ai/ha, 13 to 15 days): 0; Plant response rating, Nutsedge, Yellow (yellow nutsedge; 62 g ai/ha): 5; Plant response rating (0 to 100), Soybean (soybean): 90; Plant response rating, Soybean (soybean; 31 g ai/ha, 13 to 15 days): 60; Plant response rating, Soybean (soybean; 62 g ai/ha): 70; Plant response rating (0 to 100), Oilseed Rape (oilseed rape): 80; Plant response rating, Oilseed Rape (oilseed rape; 31 g ai/ha, 13 to 15 days): 50; Plant response rating, Oilseed Rape (oilseed rape; 62 g ai/ha): 55; Plant response rating (0 to 100), Velvetleaf (velvetleaf): 65; Plant response rating, Velvetleaf (velvetleaf; 31 g ai/ha, 13 to 15 days): 55; Plant response rating, Velvetleaf (velvetleaf; 62 g ai/ha): 50
N#Cc1cccc(Oc2ncc(F)cn2)c1-n1cc(I)cn1 [Compound 86] | 100 | 100 | 100 | 100 | 50 | 90 | 65 | 0 | 30 | 35 | 0 | 90 | 98 | 90 | 80 | 5 | 5 | 5 | 5 | 5 | Plant response rating (0 to 100), Foxtail, Giant (giant foxtail): 25; Plant response rating, Foxtail, Giant (giant foxtail; 31 g ai/ha, 13 to 15 days): 5; Plant response rating, Foxtail, Giant (giant foxtail; 62 g ai/ha): 15; Johnsongrass plant response rating (johnsongrass; 13 to 15 days): 0; Plant response rating (0 to 100), Johnsongrass (johnsongrass): 5; Plant response rating, Johnsongrass (johnsongrass; 31 g ai/ha, 13 to 15 days): 5; Plant response rating, Johnsongrass (johnsongrass; 62 g ai/ha): 5; Plant response rating (0 to 100), Nutsedge, Yellow (yellow nutsedge): 5; Plant response rating, Nutsedge, Yellow (yellow nutsedge; 31 g ai/ha, 13 to 15 days): 0; Plant response rating, Nutsedge, Yellow (yellow nutsedge; 62 g ai/ha): 5; Plant response rating (0 to 100), Soybean (soybean): 75; Plant response rating, Soybean (soybean; 31 g ai/ha, 13 to 15 days): 60; Plant response rating, Soybean (soybean; 62 g ai/ha): 70; Plant response rating (0 to 100), Oilseed Rape (oilseed rape): 45; Plant response rating, Oilseed Rape (oilseed rape; 31 g ai/ha, 13 to 15 days): 40; Plant response rating, Oilseed Rape (oilseed rape; 62 g ai/ha): 60; Plant response rating (0 to 100), Velvetleaf (velvetleaf): 65; Plant response rating, Velvetleaf (velvetleaf; 31 g ai/ha, 13 to 15 days): 25; Plant response rating, Velvetleaf (velvetleaf; 62 g ai/ha): 65
